Source: patent US20080191164A1, “Method For the Treatment of a Material Other Than the Human Body” (priority 2005, published 2008)

Experiments:
[1] = Flammability / flashpoint of the compositions; type: physicochemical; design: key to FLA = flammability: − = no; +/° C. = yes/flashpoint
[2] = Volatility / aptitude for drying; type: physicochemical; design: key: 0 = low; + = moderate; ++ = high
[3] = Rinsability with water; type: physicochemical; design: key: 0 = poor; + = good; ++ = excellent
[4] = Biodegradability (general properties table)
[5] = system: man; details: cited from earlier work; for toxicity for man: compulsory labelings T, Xn, R40, R45 and/or R65
[6] = compulsory labelings; cited from earlier work
[7] = background statement; cited from earlier work
[8] = Risks of harmfulness, protection of the aquatic environment/bioaccumulation; design: key: − = harmfulness demonstrated; + = slight risk; ++ = very slight risks
Text: For each of Compositions A to E, the characteristics of odor (“ODOR”), of stability at alkaline pH, i.e. at a pH of 9 (“STAB.”) and of risks of harmfulness in terms of protection of the aquatic environment/bioaccumulation (“BIO.”) are taken up in the table below according to the following notation: […]

[9] = Rate of evaporation with respect to n-butyl acetate; type: physicochemical; details: 20° C.
[10] = Ready biodegradability, OECD No. 301 A (DOC Die-away Test); details: at 28 days
[11] = system: aquatic organisms, such as bacteria, freshwater algae, daphnia and freshwater fish; assay: Toxicity for aquatic organisms
[12] = advantages hitherto described; cited from earlier work

## ClC=C(Cl)Cl [Composition 1, trichloroethylene]
[1]
  FLA = flammability: −
[2]
  VOL = volatility/aptitude for drying: ++
[3]
  RIN = rinsability with water: 0
[4]
  BIO = biodegradability: −
[5]
  toxicity for man: a certain toxicity for man
[6]
  toxicity for the environment: compulsory labelings R51/R53

## ClCCl [Composition 2, dichloromethane]
[1]
  FLA = flammability: −
[2]
  VOL = volatility/aptitude for drying: ++
[3]
  RIN = rinsability with water: 0
[4]
  BIO = biodegradability: −
[5]
  toxicity for man: a certain toxicity for man
[6]
  toxicity for the environment: compulsory labelings R51/R53

## C=C(C)[C@H]1CC=C(C)CC1 [Composition 3, dipentene]
[1]
  FLA = flammability: +
  FLA: flashpoint: 48 °C
[2]
  VOL = volatility/aptitude for drying: ++
[3]
  RIN = rinsability with water: 0
[4]
  BIO = biodegradability: +

## CCOC(=O)C(C)O (stereo not shown) [Composition 4, ethyl lactate]
[1]
  FLA = flammability: +
  FLA: flashpoint: 46 °C
[2]
  VOL = volatility/aptitude for drying: +
[3]
  RIN = rinsability with water: +
[7]
  flashpoint: 46 °C

## CO[C@H]1CO[C@H]2[C@@H]1OC[C@H]2OC [Composition 5, dimethyl isosorbide]
[1]
  FLA = flammability: +
  FLA: flashpoint: 120 °C
[2]
  VOL = volatility/aptitude for drying: 0
[3]
  RIN = rinsability with water: ++
[4]
  BIO = biodegradability: +
[8]
  BIO. (risks of harmfulness, aquatic environment/bioaccumulation): ++
[9]
  rate of evaporation with respect to n-butyl acetate: less than 0.005
[10]
  ready biodegradability (OECD No. 301 A): ~25%
[11]
  toxicity for aquatic organisms: absence of toxicity
[5]; advantages hitherto described
  irritant nature and toxicity to man: absence of irritant nature and of toxicity to man
[12]
  miscibility with water: in all proportions

## C=C(C)[C@H]1CC=C(C)CC1 [d-limonene]
[7]
  flashpoint: 48 °C
